From US20230203043A1, “NOVEL IMIDAZOPYRAZINE DERIVATIVES” (Hoffmann-La Roche Inc., priority 2020, published 2023)
Where a name gives a salt, the structure may show the parent alone.

Each molecule was assayed on Acinetobacter baumannii ATCC17961 (assay: Antimicrobial susceptibility testing: 90% growth inhibitory concentration (IC90) determination in Iso-Sensitest broth, OD600 growth). Conditions: Acinetobacter baumannii, ATCC17961, 16 h, read-out: A. baumannii ATCC 17961 IC90 (uM), strain ATCC 17961, OD600 growth over 16 h.
Assay type: cell-based
Outline: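 Serial twofold dilution, 10 points, e.g. 50–0.097 μM final; ~5×10^(5) CFU/ml; 35±2° C, 16 h; kinetic OD600 every 20 min; IC90 from log-phase inhibition.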
With `CCc1cc(Nc2nccn3c(-c4c[nH]nc4C(F)(F)F)cnc23)ccc1C(=O)NCCOCCCN` [Example 613, N-(2-(3-aminopropoxy)ethyl)-2-ethyl-4-((3-(3-(trifluoromethyl)-1H-pyrazol-4-yl)imidazo [1,2-a]pyrazin-8-yl)amino)benzamide formate] the IC90 was 0.105 µM.
Work on `CCc1cc(Nc2nccn3c(-c4cn(CC(F)F)nc4C(F)(F)F)cnc23)ccc1C(=O)NC1CNC1` [Example 565, N-(azetidin-3-yl)-4-((3-(1-(2,2-difluoroethyl)-3-(trifluoromethyl)-1H-pyrazol-4-yl)imidazo[1,2-a]pyrazin-8-yl)amino)-2-ethylbenzamide formate] yielded an IC90 of 0.188 µM.
`CCc1cc(Nc2nccn3c(-c4cn(CC#N)nc4C(F)(F)F)cnc23)ccc1C(=O)NCCNC(=O)[C@@H](C)N` [Example 625, (R)-N-(2-(2-aminopropanamido)ethyl)-4-((3-(1-(cyanomethyl)-3-(trifluoromethyl)-1H-pyrazol-4-yl)imidazo[1,2-a]pyrazin-8-yl)amino)-2-ethylbenzamide formate] gave an IC90 of 0.176 µM.
`C[C@@H](NC(=O)c1ccc(Nc2nccn3c(-c4c[nH]nc4C(F)(F)F)cnc23)cc1Cl)C(=O)N1CCNCC1` [Example 91, 2-chloro-N-[(2R)-1-oxo-1-piperazin-1-ylpropan-2-yl]-4-[[3-[3-(trifluoromethyl)-1H-pyrazol-4-yl]imidazo[1,2-a]pyrazin-8-yl]amino]benzamide formate] was tested, and the IC90 was 0.645 µM.
`CCc1cc(Nc2nccn3c(-c4cn(CC#N)nc4C(F)(F)F)cnc23)ccc1C(=O)N1CCC(O)(CNC)CC1` [Example 219, 2-[4-[8-[3-ethyl-4-[4-hydroxy-4-(methylaminomethyl)piperidine-1-carbonyl]anilino]imidazo[1,2-a]pyrazin-3-yl]-3-(trifluoromethyl)pyrazol-1-yl]acetonitrile formate] was tested, and the IC90 was 0.599 µM.
`CCc1cc(Nc2nccn3c(-c4cn(CC5CCOC5)nc4C(F)(F)F)cnc23)ccc1C(=O)NCCOCCN` (stereo not shown) [Example 307, N-[2-(2-aminoethoxy)ethyl]-2-ethyl-4-[[3-[1-(oxolan-3-ylmethyl)-3-(trifluoromethyl)pyrazol-4-yl]imidazo[1,2-a]pyrazin-8-yl]amino]benzamide formate] gave an IC90 of 0.514 µM.
`Cn1nccc1Cn1cc(-c2cnc3c(Nc4ccc(C(=O)N5CCNCC5)c(Cl)c4)nccn23)c(C(F)(F)F)n1` [Example 181, [2-chloro-4-[[3-[1-[(2-methylpyrazol-3-yl)methyl]-3-(trifluoromethyl)pyrazol-4-yl]imidazo[1,2-a]pyrazin-8-yl]amino]phenyl]-piperazin-1-ylmethanone formate] gave an IC90 of 0.293 µM.
Molecule `CCc1cc(Nc2nccn3c(-c4cn(C5CCC5)nc4C(F)(F)F)cnc23)ccc1C(=O)NCCOCCN` [Example 273, N-[2-(2-aminoethoxy)ethyl]-4-[[3-[1-cyclobutyl-3-(trifluoromethyl)pyrazol-4-yl]imidazo[1,2-a]pyrazin-8-yl]amino]-2-ethylbenzamide formate] has an IC90 of 0.087 µM.
In the case of `NCCCC(=O)N1CCN(C(=O)c2ccc(Nc3nccn4c(-c5c[nH]nc5C(F)(F)F)cnc34)cc2Cl)CC1` [Example 399, 4-amino-1-[4-[2-chloro-4-[[3-[3-(trifluoromethyl)-1H-pyrazol-4-yl]imidazo[1,2-a]pyrazin-8-yl]amino]benzoyl]piperazin-1-yl]butan-1-one formate], the IC90 is reported as 0.214 µM.

Same assay, conditions: Acinetobacter baumannii, ATCC17961, 16 h, strain ATCC 17961, OD600 growth over 16 h, read-out: A. baumannii ATCC 17961 IC90
In the case of `CCc1cc(Nc2nccn3c(-c4cn(CC(F)F)nc4C(F)(F)F)cnc23)ccc1C(=O)NCCNC(=O)[C@H]1C[C@@H](N)C1` [Example 624, cis-N-(2-((1s,3s)-3-aminocyclobutane-1-carboxamido)ethyl)-4-((3-(1-(2,2-difluoroethyl)-3-(trifluoromethyl)-1H-pyrazol-4-yl)imidazo[1,2-a]pyrazin-8-yl)amino)-2-ethylbenzamide formate], the IC90 is reported as 0.19 µM.
`CCc1cc(Nc2nccn3c(-c4cn(CCF)nc4C(F)F)cnc23)ccc1C(=O)N1CCN(C(=O)C2(O)CCNCC2)CC1` [Example 791, (4-(4-((3-(3-(difluoromethyl)-1-(2-fluoroethyl)-1H-pyrazol-4-yl)imidazo[1,2-a]pyrazin-8-yl)amino)-2-ethylbenzoyl)piperazin-1-yl)(4-hydroxypiperidin-4-yl)methanone] gave an IC90 of 1.85 µM.
Molecule `CCc1cc(Nc2nccn3c(-c4c[nH]nc4C(F)(F)F)cnc23)ccc1C(=O)N1CCN(C(=O)C2(O)CCNCC2)CC1` [Example 355, [2-ethyl-4-[[3-[3-(trifluoromethyl)-1H-pyrazol-4-yl]imidazo[1,2-a]pyrazin-8-yl]amino]phenyl]-[4-(4-hydroxypiperidine-4-carbonyl)piperazin-1-yl]methanone hydrochloride] has an IC90 of 1.3 µM.
With `N#CCn1cc(-c2cnc3c(Nc4ccc(C(=O)N5CCN(C(=O)[C@H]6CC[C@@H](N)C6)CC5)c(F)c4)nccn23)c(C(F)(F)F)n1` [Example 807, 2-(4-(8-((4-(4-((1S,3R)-3-aminocyclo-pentane-1-carbonyl)piperazin-1-carbonyl)-3-fluorophenyl)amino)imidazo [1,2-a]pyrazin-3-yl)-3-(trifluoromethyl)-1H-pyrazol-1-yl)acetonitrile hydrochloride] the IC90 was 0.31 µM.
Molecule `CCc1cc(Nc2nccn3c(-c4cn(CC#N)nc4C(F)(F)F)cnc23)ccc1C(=O)NCCOC[C@H](C)N` [Example 152, N-[2-[(2S)-2-aminopropoxy]ethyl]-4-[[3-[1-(cyanomethyl)-3-(trifluoromethyl)pyrazol-4-yl]imidazo[1,2-a]pyrazin-8-yl]amino]-2-ethylbenzamide] has an IC90 of 0.241 µM.
`NCCCC(=O)NCCCNC(=O)c1ccc(Nc2nccn3c(-c4c[nH]nc4C(F)(F)F)cnc23)cc1Cl` [Example 344, N-[3-(4-aminobutanoylamino)propyl]-2-chloro-4-[[3-[3-(trifluoromethyl)-1H-pyrazol-4-yl]imidazo[1,2-a]pyrazin-8-yl]amino]benzamide formate] was tested, and the IC90 was 0.572 µM.
`Cc1cc(Nc2nccn3c(-c4c[nH]nc4C(F)(F)F)cnc23)ccc1S(C)(=O)=NCCCN` (stereo not drawn) [Example 518, ((3-Aminopropyl)imino)(methyl)(2-methyl-4-((3-(3-(trifluoromethyl)-1H-pyrazol-4-yl)imidazo[1,2-α]pyrazin-8-yl)amino)phenyl)-λ^6-sulfanone] showed an IC90 of 0.935 µM.
For `CCc1cc(Nc2nccn3c(-c4cn(CC#N)nc4C(F)(F)F)cnc23)ccc1C(=O)NCCNC(=O)[C@@H]1CCCN1` [Example 3, (2S)—N-[2-[[4-[[3-[1-(cyanomethyl)-3-(trifluoromethyl)pyrazol-4-yl]imidazo[1,2-a]pyrazin-8-yl]amino]-2-ethylbenzoyl]amino]ethyl]pyrrolidine-2-carboxamide], the IC90 was 0.16 µM.
In the case of `CCc1cc(Nc2nccn3c(-c4cn(CC(F)F)nc4C(F)(F)F)cnc23)ccc1C(=O)NCC(=O)NCC1CCNCC1` [Example 550, 4-[[3-[1-(2,2-difluoroethyl)-3-(trifluoromethyl)pyrazol-4-yl]imidazo[1,2-a]pyrazin-8-yl]amino]-2-ethyl-N-[2-oxo-2-(4-piperidylmethylamino)ethyl] benzamide formate], the IC90 is reported as 0.261 µM.
With `CCc1cc(Nc2nccn3c(-c4cn(CC#N)nc4C(F)(F)F)cnc23)ccc1C(=O)NCCOC[C@@H](C)N` [Example 156, N-[2-[(2R)-2-aminopropoxy]ethyl]-4-[[3-[1-(cyanomethyl)-3-(trifluoromethyl)pyrazol-4-yl]imidazo[1,2-a]pyrazin-8-yl]amino]-2-ethylbenzamide] the IC90 was 0.627 µM.
Work on `CNC(=O)c1ccc(Nc2nccn3c(-c4cn(Cc5ccn(CC#N)n5)nc4C(F)(F)F)cnc23)cc1Cl` [Example 590, 2-chloro-4-((3-(1-((1-(cyanomethyl)-1H-pyrazol-3-yl)methyl)-3-(trifluoromethyl)-1H-pyrazol-4-yl)imidazo [1,2-a]pyrazin-8-yl)amino)-N-methylbenzamide] yielded an IC90 of 0.375 µM.
With `CCc1cc(Nc2nccn3c(-c4cn(CC#N)nc4C(F)(F)F)cnc23)ccc1C(=O)NCCNC(=O)N1CC[C@H](N)C1` [Example 577, (S)-3-amino-N-(2-(4-((3-(1-(cyanomethyl)-3-(trifluoromethyl)-1H-pyrazol-4-yl)imidazo[1,2-a]pyrazin-8-yl)amino)-2-ethylbenzamido)ethyl) pyrrolidine-1-carboxamide formate] the IC90 was 0.395 µM.
`O=C(NC1CNC1)c1ccc(Nc2nccn3c(-c4c[nH]nc4C(F)(F)F)cnc23)cc1Cl` [Example 406, N-(azetidin-3-yl)-2-chloro-4-[[3-[3-(trifluoromethyl)-1H-pyrazol-4-yl]imidazo[1,2-a]pyrazin-8-yl]amino]benzamide] was tested, and the IC90 was 1.4 µM.
With `NC12CC(NC(=O)c3ccc(Nc4nccn5c(-c6cn(CC(F)F)nc6C(F)(F)F)cnc45)cc3Cl)(C1)C2` [Example 87, N-(3-amino-1-bicyclo[1.1.1]pentanyl)-2-chloro-4-[[3-[1-(2,2-difluoroethyl)-3-(trifluoromethyl)pyrazol-4-yl]imidazo[1,2-a]pyrazin-8-yl]amino]benzamide] the IC90 was 0.359 µM.
Work on `CCc1cc(Nc2nccn3c(-c4c[nH]nc4C(F)(F)F)cnc23)ccc1C(=O)N[C@H](C)CNC(=O)[C@@H]1C[C@@H](O)CN1` [Example 782, (2S,4R)-N-((R)-2-(2-ethyl-4-((3-(3-(trifluoromethyl)-1H-pyrazol-4-yl)imidazo[1,2-a]pyrazin-8-yl)amino)benzamido)propyl)-4-hydroxypyrrolidine-2-carboxamide] yielded an IC90 of 1.15 µM.

Same assay, conditions: strain ATCC 17961, OD600 growth over 16 h, read-out: A. baumannii ATCC 17961 IC90
Molecule `COCCn1cc(-c2cnc3c(Nc4ccc(C(=O)N5CCN(C(=O)NCCN)CC5)c(Cl)c4)nccn23)c(C(F)(F)F)n1` [Example 290, N-(2-aminoethyl)-4-[2-chloro-4-[[3-[1-(2-methoxyethyl)-3-(trifluoromethyl)pyrazol-4-yl]imidazo[1,2-a]pyrazin-8-yl]amino]benzoyl] piperazine-1-carboxamide formate] has an IC90 of 0.33 µM.
